Experiments:
NIH3T3 fibroblasts = test: Anchorage-independent growth assay (soft agar) on NIH3T3 fibroblasts incubated with MVs; format: cell-based; settings: NIH3T3 cells, U87 cell-derived MVs treated with AG1478
Protocol: FIG. 21. Anchorage-independent growth assays were performed on fibroblasts incubated with MDAMB231 cell-derived MVs treated without or with T101, the RGD-peptide, or the control RGE-peptide. Data represents the mean±s.d. from at least three independent experiments.
FIG. 34. MDAMB231 cell-derived MVs transform recipient MCF10A mammary epithelial cells. Anchorage-independent growth assays were performed on NIH3T3 fibroblasts incubated with U87 cell-derived MVs treated without or with the EGF receptor inhibitor AG1478. The culturing medium (including the MVs, T101, and AG1478) for the soft agar assays performed was replenished every third day for 12 days, at which time the colonies that formed were counted. […]
Parental NIH3T3 cells or MCF10A cells incubated without or with MVs derived from 5.0×10^6 MDAMB231 cells or U87 cells, or NIH3T3 cells stably overexpressing the vector-control, wild-type tTG, or Cdc42 F28L, were plated at a density of 7×10^3 cells/ml in medium containing 0.3% agarose, without or with various inhibitors as indicated, onto underlays composed of growth medium containing 0.6% agarose in six-well dishes. The soft agar cultures were re-fed (including the addition of freshly prepared MVs and treatments with various inhibitors as indicated) every third day for 12 days, at which time the colonies that formed were counted. […]

MDAMB231 cells [1] = test: Tumor formation assay in nude mice; format: in vivo; settings: cells exposed to mitomycin-C before subcutaneous injection into nude mice
Protocol: FIG. 25. Tumor formation assays were performed in which 5×10^5 mitotically-arrested (using mitomycin-C) MDAMB231 cells (denoted as Mito-C-MDAMB231) expressing either control siRNA (siCont) or tTG siRNAs (denoted as siTG-1 or siTG-2) were subcutaneously injected singly, or combined with 5×10^5 NIH3T3 fibroblasts, into nude mice. As controls, untreated MDAMB231 and NIH3T3 cells were injected into nude mice.
The MDAMB231, U87, MCF10A, and HeLa cell lines were grown in RPMI 1640 medium containing 10% fetal bovine serum, while the NIH3T3 cell line was grown in DMEM medium containing 10% calf serum. Expression constructs were transfected into cells using Lipofectamine, whereas the control and tTG siRNAs were introduced into cells with Lipofectamine 2000. As indicated, cells were incubated with serum-free medium containing combinations of 0.1 μg/ml EGF, 100 μM MDC, 10 μM T101, 10 μM BFA, and 10 μM Exo1. […]
5×10^5 mitotically arrested (using mitomycin-C) MDAMB231 cells stably expressing control or tTG siRNAs were combined with 5×10^5 NIH3T3 fibroblasts and growth factor-reduced Matrigel (BD Biosciences) to achieve 30% Matrigel in the final solution. […] After a month, the animals were sacrificed and the resulting tumors that formed for each experimental condition were excised and counted. […]

MDAMB231 cells [2] = test: MV formation by MDAMB231 cells, immunofluorescence with tTG antibody; format: cell-based, human; settings: serum-starved MDAMB231 cells treated with inhibitor
Protocol: FIG. 38. Serum-starved MDAMB231 cells treated without or with T101, MDC, BFA, or Exo1, were immuno-stained with a tTG antibody. Shown are representative images of the cells exposed to the various inhibitors. Cells forming MVs are denoted with arrows.
(§1) The MDAMB231, U87, MCF10A, and HeLa cell lines were grown in RPMI 1640 medium containing 10% fetal bovine serum, while the NIH3T3 cell line was grown in DMEM medium containing 10% calf serum. Expression constructs were transfected into cells using Lipofectamine, whereas the control and tTG siRNAs were introduced into cells with Lipofectamine 2000. As indicated, cells were incubated with serum-free medium containing combinations of 0.1 μg/ml EGF, 100 μM MDC, 10 μM T101, 10 μM BFA, and 10 μM Exo1. To mitotically arrest MDAMB231 cells, plates of cells were treated with 10 μg/ml mitomycin-C for 2 hours, before rinsing the solution away and allowing the cells to recover in growth medium (RPMI-1640 medium containing 10% FBS) for a day.
Cells were fixed with 3.7% paraformaldehyde and then some samples were permeabilized with phosphate-buffered saline (PBS) containing 0.1% Triton X-100. Permeabilized and non-permeabilized samples were incubated with a tTG antibody, and then incubated with Oregon green 488-conjugated secondary antibody. Rhodamine-conjugated phalloidin was used to stain actin and DAPI was used to stain nuclei. The cells were visualized by fluorescent microscopy and the images were captured and processed using IPLABS.

MDAMB231 cells [3] = test: Shedding of MVs by MDAMB231 cells, immunoblot of flotillin-2 and tTG in MV lysates; format: cell-based, human; settings: MDAMB231 cells treated with inhibitor
Description: FIG. 39. Serum-starved MDAMB231 cells treated without or with the tTG inhibitors T101 and MDC (left panel), transfected with either control siRNA (siCont) or two distinct tTG siRNAs (siTG-1 and siTG-2) (middle panel), or treated without or with the inhibitors of classical secretion, BFA and Exo1 (right panel), were lysed (WCLs) and the MVs released into the medium by the cells were also collected and lysed. The extracts were immunoblotted with antibodies against tTG, the MV-marker flotillin-2, and the cytosolic-specific-marker IκBα.
For each of the experiments that used MV preparations, the conditioned medium from 5.0×10^6 serum-starved MDAMB231 cells or U87 cells (which is the equivalent of two nearly confluent 150 MM dishes of either of these cell lines) were collected and the MVs isolated from the medium as previously described. […]
The protein concentrations of the whole cell lysates (WCLs) were determined using the Bio-Rad DC protein assay, while the MV lysates were normalized for comparison by isolating them from the conditioned medium of 5.0×10^6 serum-starved MDAMB231 cells or U87 cells for each of the experimental conditions assayed, and then lysing in 250 μl of cell lysis buffer. […] The primary antibodies were detected with horseradish peroxidase-conjugated secondary antibodies (Amersham Biosciences) followed by exposure to ECL reagent.

tTG = target: T1, tTG (Homo sapiens, UniProt P21980); test: Transamidation activity of intact MDAMB231 cell-derived MVs (incorporation of BPA into casein); format: biochemical; settings: pre-treatment of intact MDAMB231 cell-derived MVs with inhibitor
T1 construct: endogenous in cells; host or cells: microvesicles shed by serum-starved MDAMB231 (and U87) cells
T1 sequence (P21980 1-687): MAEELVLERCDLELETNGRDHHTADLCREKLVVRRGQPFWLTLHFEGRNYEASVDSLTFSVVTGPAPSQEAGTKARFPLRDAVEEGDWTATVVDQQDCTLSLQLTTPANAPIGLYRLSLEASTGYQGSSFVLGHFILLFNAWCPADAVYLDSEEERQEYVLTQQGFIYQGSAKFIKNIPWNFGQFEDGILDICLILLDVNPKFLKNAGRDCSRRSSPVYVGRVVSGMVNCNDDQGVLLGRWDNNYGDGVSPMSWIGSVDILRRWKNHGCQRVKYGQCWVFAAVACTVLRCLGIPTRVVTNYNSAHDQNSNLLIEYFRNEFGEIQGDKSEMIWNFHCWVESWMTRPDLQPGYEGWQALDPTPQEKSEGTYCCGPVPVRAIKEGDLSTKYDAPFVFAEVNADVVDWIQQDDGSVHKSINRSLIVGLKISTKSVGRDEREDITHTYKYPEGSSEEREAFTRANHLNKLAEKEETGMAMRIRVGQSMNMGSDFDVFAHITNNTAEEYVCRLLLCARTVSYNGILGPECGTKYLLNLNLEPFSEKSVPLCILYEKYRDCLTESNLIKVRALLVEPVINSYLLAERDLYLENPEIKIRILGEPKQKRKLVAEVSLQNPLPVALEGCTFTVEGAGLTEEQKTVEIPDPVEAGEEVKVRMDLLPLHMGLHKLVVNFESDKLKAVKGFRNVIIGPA
Protocol: FIG. 17. Whole cell lysates (WCLs) of serum-starved MDAMB231 cells, as well as intact MVs generated by these cells treated without or with the tTG inhibitors T101 (cell-impermeable) or MDC (cell-permeable), were assayed for transamidation activity as readout by the incorporation of BPA into casein. The samples were then immunoblotted with antibodies against tTG, flotillin-2, and IκBα.
The transamidation activity in whole cell extracts was readout by the incorporation of BPA into lysate proteins as previously described, whereas the transamidation activity of recombinant tTG (0.1 μM) exposed to increasing concentrations of T101 was determined using a spectrophotometric assay. The transamidation activity associated with MVs was readout by incubating equal amounts (75 μl) of each MV sample in a buffer containing 40 mM N′N-dimethyl casein, 2 mM BPA, 40 mM CaCl2, and 40 mM dithiothreitol for 15 minutes. The reaction was stopped by the addition of Laemmli sample buffer followed by boiling. The reactions were then resolved by SDS-PAGE and the proteins transferred to polyvinylidene difluoride membranes. […]

[4] = tested on: NIH3T3 fibroblasts stably overexpressing Myc-tagged tTG; test: Cell death assay on NIH3T3 fibroblasts stably overexpressing Myc-tTG; format: cell-based; settings: serum-free medium, cells treated with MDC
Protocol: FIG. 23. Cell death assays were performed on the NIH3T3 stable cell lines maintained in serum-free medium that was treated with T101, MDC, or 2% CS-medium, or was untreated. Data represents the mean±s.d. from at least three independent experiments.
NIH3T3 cells or MCF10A cells were plated in each well of a 6-well dish and then cultured in medium containing 2% CS or serum-free medium supplemented without or with MVs derived from 5.0×10^6 MDAMB231 cells or U87 cells, and without or with MDC or T101, as indicated. Two days later the cultures were fixed and stained with DAPI for viewing by fluorescence microscopy. Cells undergoing apoptosis were identified by nuclear condensation or blebbing and the percentage of cell death was determined by calculating the ratio of apoptotic to total cells for each condition. These experiments were conducted at least three times and the results from each experiment were averaged together and graphed.

[5] = tested on: HeLa cervical carcinoma cells; test: MV formation in HeLa cells, rhodamine-phalloidin labeling; format: cell-based, human; settings: serum-starved HeLa cells, EGF stimulation
Protocol: FIG. 2. Quantification of MV production by various cell lines cultured under serum-starved or EGF-stimulated conditions. Cells generating MVs were detected by labeling the samples with rhodamine-conjugated phalloidin. The data shown represents the mean±s.d. from three independent experiments.
FIG. 3. Images of cells from the experiment performed in FIG. 2. Some of the MVs are denoted with arrows.
as §1

Compound	effect on MV formation (MDAMB231 cells [2])	effect on shedding of MVs (flotillin-2 and tTG in isolated MVs) (MDAMB231 cells [3])	other results
COc1cc2ncnc(Nc3cccc(Cl)c3)c2cc1OC [AG1478]	–	–	anchorage-independent growth advantage imparted by U87 cell-derived MVs (NIH3T3 fibroblasts): insensitive
CO[C@@]12[C@H](COC(N)=O)C3=C(C(=O)C(C)=C(N)C3=O)N1C[C@@H]1N[C@@H]12 [mitomycin-C]	–	–	ability of MDAMB231 cells to form tumors (MDAMB231 cells [1]): inhibited
COC(=O)c1ccccc1NC(=O)c1ccc(F)cc1 [ExoI]	not sensitive	nor was it affected	–
CN(C)c1cccc2c(S(=O)(=O)NCCCCCN)cccc12 [MDC, monodansylcadaverine]	had no effect	–	crosslinking activity associated with MVs (levels of BPA-labeled casein) (tTG): greatly diminished; resistance to serum-deprivation-induced apoptosis [4]: ablated
C[C@H]1CCC/C=C/[C@@H]2C[C@H](O)C[C@H]2[C@H](O)/C=C/C(=O)O1 [BFA, brefelden A]	not sensitive	nor was it affected	–
epidermal growth factor [EGF, growth factor used to stimulate cells]	–	–	MV formation [5]: induced

Source: patent publication US20140079717A1, “Compositions and Methods to Prevent Cell Transformation and Cancer Metastasis” (CORNELL UNIVERSITY, priority 2011, published 2014)
